Assay results: US10189803B2, “Synthesis of therapeutic and diagnostic drugs centered on regioselective and stereoselective ring opening of aziridinium ions” (ILLINOIS INSTITUTE OF TECHNOLOGY, priority 2008, dated 2019)

Tests used:
[1] = tested on: Hela cells; assay: Antiproliferative activity, MTS assay, HeLa cells; format: cell-based, Human; conditions: Homo sapiens; 72 h incubation, MTS
Protocol: (§1) Cell culture Human cervix HeLa cell line was obtained from ATCC (Rockville, Md.) and cultured in minimum essential medium (MEM) with L-glutamine (2 mM), Earle's BSS and sodium bicarbonate (1.5 g/L), supplemented with 10% fetal bovine serum (FBS), non-essential amino acids (0.1 mM), sodium pyruvate (1 mM) and antibiotic/antimycotic solution in a humidified atmosphere with 5% CO2 at 37° C. […] Lung fibroblast MRC-5 cell line was obtained from ATCC (Rockville, Md.) and cultured in ATCC formulated EMEM, supplemented with 10% fetal bovine serum (FBS) in a humidified atmosphere with 5% CO2 at 37° C.
(§2) Antiproliferative Activity. Cells were seeded onto 96-well plate at density of 2,000 cells for Hela cells or 5,000 cells for HT29 cells or 5,000 cells for MRC-5 per well in 0.1 mL complete medium and allowed to attach for 24 h. Varying concentrations of the test compounds in the final volume of 0.1 mL complete medium were then added in at least five series dilutions and incubated for 72 h. To measure cell proliferation, the Cell Titer 96 aqueous nonreactive cell proliferation assay (Promega Life Sciences, Madison, Wis.) was used according to the manufacturer's instructions. Briefly, MTS (2 mg/mL) and PMS (0.92 mg/ml) were mixed in a ratio of 20:1. An aliquot (20 μL) of the MTS/PMS mixture was added into each well, and the plate was incubated for 3 h at 37° C. Optical absorbance at 490 nm was then recorded with an enzyme-linked immunosorbent assay (ELISA) microtiter plate reader (Biotek). Each experiment was done at least in triplicate. Antiproliferative activity of the test compounds was expressed as the fraction of optical densities of treated the cells relative to the untreated solvent controls.^31 The data were plotted in GraphPad Prizm 3.0. Nonlinear regression analysis was used to determine IC50 values.
(§3) Cell culture. Human cervix HeLa cell line was obtained from ATCC (Rockville, Md.) and cultured in minimum essential medium (MEM) with L-glutamine (2 mM), Earle's BSS and sodium bicarbonate (1.5 g/L), supplemented with 10% fetal bovine serum (FBS), non-essential amino acids (0.1 mM), sodium pyruvate (1 mM) and antibiotic/antimycotic solution in a humidified atmosphere with 5% CO2 at 37° C.
as §2, with “activity.” for “Activity.”, “cells” for “cells or 5,000 cells for MRC-5”, “controls.” for “controls.^31”

[2] = tested on: HT29 cells; assay: Antiproliferative activity, MTS assay, HT29 cells; format: cell-based, Human; conditions: Homo sapiens, HT-29, 72 h incubation
Protocol: as §1, §2, §3
as §2, with “activity.” for “Activity.”, “cells” for “cells or 5,000 cells for MRC-5”, “controls.” for “controls.^31”

[3] = TEM measurement of self-assembled micelles; format: physicochemical; conditions: aqueous solution
Source text: Amphifacial cholic acid is a good targeting moiety, and its conjugation to MR contrast agent is expected to form helical globular aggregates with a favorable pharmacokinetic and relaxivity profile. In FIG. 41, cholic acid was converted to an activated amide 1, which was further reacted with a functionalized NE3TA (2) containing an amino group to provide Compound 3. The t-butyl group of Compound 3 was removed by treatment with 4M HCl in 1,4-dioxane to provide CA-NE3TA (4). […] The Gd(III) complex of CA-NE3TA was prepared as described above. Gd(CA-NE3TA) self-assembles into nano-sized micells as evidenced by TEM measurement (˜10 nm, FIG. 24). […] Aggregation of Gd(CA-NE3TA) as evidenced by TEM images is proposed to result from heating during the complexation reaction and/or gadolinium induced cross linking. T1 relaxivity of Gd(CA-NE3TA) in aqueous solution (0.2 mM) was measured to 10.85 mM^−1 s^−1. […] This increase in relaxivity may be a result of slower molecular rotation due to aggregation of the complex as evidenced by the TEM image.
TEM measurement. Stock solutions of compounds CA-NE3TA and Gd(CA-NE3TA) were prepared in 18 MΩ H2O and diluted to the final concentrations of CA-NE3TA (10 μM, pH=5) and Gd(CA-NE3TA) (100 μM or 10 μM, pH=7). In triplicate, a 5 μL aliquot of CA-NE3TA solution was placed on a gold-coated grid (300 mesh, formvar support film, Cat #FF300-Au, Electron Microscopy Sciences, PA). The sample on the grid was air-dried for 5-10 min after each deposition. The grid was air-dried overnight, transferred into a desiccator, and further dried in vacuo for 1.5 days. The sample of Gd(CA-NE3TA) (10 μM) was prepared as described above. […]
TEM images of CDCA-NE3TA indicate that the hydrophobic bile acid conjugated to NE3TA forms discrete semi-square micelles in nanometer size (˜15-60 nm, FIG. 29). […] Aza cholic acid 10 was prepared starting from the readily available cholic acid according to the literature. […]

[4] = T1 relaxivity of Gd(III) complexes (Bruker mq60 NMR analyzer); format: physicochemical; conditions: aqueous solution (0.2 mM)
Protocol: Gd(NE3TA) and Gd(NE3TA-Bn) were synthesized by reacting GdCl3 with NE3TA and NE3TA-Bn, respectively. NE3TA or NE3TA-Bn were mixed with GdCl3 in a molar ratio of 1 to 0.9, and the resulting mixture at pH 7 was heated to 90° C. and stirred until no free Gd(III) ions were detected using an ArsenazoIII (AAIII) assay. Relaxivity of the aqueous […] complexes (pH 7) was measured on a Bruker MQ60 NMR analyzer, and the concentration of the Gd(III) complexes was measured by ICP-MS. […] NE3TA was successfully conjugated with the most common bile acid, cholic acid (FIG. 41).
(§4) Relaxivity Measurements. Relaxivity measurements were acquired by taking the slope of a plot of 1/T1 (s^−1) versus concentration (mM). The longitudinal water proton relaxation times (T1) were determined using a Bruker mq60 NMR (Bruker Canada, Milton, ON, Canada) analyzer operating at 59.97 MHz and 37° C. The agent was added to Millipore water and serially diluted by 0.5 to give a series of 5 concentrations (500 μL total volume) for each relaxivity trial. The T1 was determined using an inversion recovery pulse sequence with 10 different pulse separations per sample, 4 repetitions per echo time, phase cycling, and a recycle delay that is ≥5 times the T1 of each given sample. All curves were fit using a monoexponential curve fitting formula.
Relaxivity of the aqueous Gd(III) complexes (˜pH 7) were measured on a Bruker MQ60 NMR analyzer, and the concentration of the Gd(III) complexes were measured by ICP-MS. […] As mentioned above, the on and off binding to Gd(III) of one of the pendant coordinates would have resulted enhanced relaxivity of Gd(C-NETA) compared to Gd(C-DOTA). Among the evaluated Gd(III) complexes, Gd(C-NE3TA) gives the highest T1 relaxivity at 60 MHz, probably due to increase in q. The relaxation rates for the Gd(III) chelates are dominated by the inner-sphere dipolar coupling between the coordinated water molecule and the paramagnetic Gd(III). The measured relaxivities arise from the exchange between the coordinated water molecule and the surrounding water molecules in solution. […] No indication of Gd(III) dissociation is evident from the relaxivity data, which is in agreement with the in vitro serum stability and in vivo biodistribution studies.
as §4, with “The T1 relaxivity was determined” for “The T1 was determined”

Compound | IC50 [1] [µM] | IC50 [2] [µM] | micelle size (TEM) [3] | T1 relaxivity [4] [mM⁻¹ s⁻¹]
CC(CCC(=O)Nc1ccc(CC(CN2CCN(CC(=O)O)CCN(CC(=O)O)CC2)NCC(=O)O)cc1)C1CCC2C3C(O)CC4CC(O)CCC4(C)C3CC(O)C12C (centres unmarked) [CA-NE3TA, [4-Carboxymethyl-7-(2-(carboxymethyl-amino)-3-{4-[4-(3,7,12-trihydroxy-10,13-dimethyl-hexadecahydro-cyclopenta[a]phenanthren-17-yl)-pentanoylamino]-phenyl}-propyl)-[1,4,7]triazonan-1-yl]-acetic acid] | 24 ± 2.7 | 8.3 ± 2.4 | 10-50 nm | 
CC(CCC(=O)Nc1ccc(CC(CN2CCN(CC(=O)O)CCN(CC(=O)O)CC2)NCC(=O)O)cc1)C1CCC2C3C(O)CC4CC(O)CCC4(C)C3CCC12C (centres unmarked) [CDCA-NE3TA, [4-Carboxymethyl-7-(2-(carboxymethyl-amino)-3-{4-[4-(3,7-dihydroxy-10,13-dimethylhexadecahydro-cyclopenta[a]phenanthren-17-yl)-pentanoylamino]-phenyl}-propyl)-[1,4,7]triazonan-1-yl]-acetic acid] | 24.6 ± 1 | 15.5 ± 3.2 | 15-60 nm | 
CC(CCC(=O)Nc1ccc(CC(CN2CCN(CC(=O)O)CCN(CC(=O)O)CC2)NCC(=O)O)cc1)C1CCC2C3C(O)CC4CC(O)CCC4(C)C3CC(O)C12C.[Gd] (centres unmarked) [Gd(CA-NE3TA)] |  |  | ~10 nm | 10.85
